pIC50: −log10 of the molar value.
What was measured:
[1] = target: T1, dopamine uptake, rat reuptake transporter (synaptosomes from male Wistar rat striatum) (Rattus norvegicus, UniProt P23977); assay: Dopamine functional uptake assay for rat reuptake transporter (synaptosomes); assay type: biochemical; details: for pIC50: rat synaptosomes, [3H]-dopamine uptake, read-out: Inhibition of monoamine uptake, Rat DA, IC50
T1 construct: synaptosomes isolated in a 0.32 M sucrose buffer from a male Wistar rat striatum; from tissue; host or cells: male Wistar rat striatum synaptosomes
Experimental: (§1) The concentrations of radioligand employed in the assays were at or below the KM for the monoamine substrates with their cognate transporters. Compounds were tested at 5 to 10 different concentrations in duplicate in order to obtain full inhibition curves.
Quantification of dopamine uptake was performed using synaptosomes isolated in a 0.32 M sucrose buffer from a male Wistar rat striatum. The uptake of radiolabelled dopamine by synaptosomes (20 μg of proteins/point) was allowed by incubating them for 15 minutes at 37° C. in the presence of test compounds and [^3H]-dopamine (0.1 μCi/point). The experiment was performed in a deep well.
Synaptosomes and [^3H]-dopamine were prepared in a Krebs buffer pH 7.4 containing 25 mM NaHCO3, 11 mM glucose and 50 μM ascorbic acid. This incubation buffer was oxygenated for 5 minutes before incubation. Basal control was incubated for 15 minutes at 4° C. in order to avoid any uptake. Following this incubation, the uptake was stopped by filtration through a unifilter 96-wells GFB Packard plate washed with Krebs buffer containing 25 mM NaHCO3in order to eliminate free [^3H]-dopamine. The radioactivity associated to the synaptosomes retained onto the unifilter corresponding to the uptake was then measured with a microplate scintillation counter (Topcount, Packard) using a scintillation fluid.

[2] = target: norepinephrine uptake, rat reuptake transporter (synaptosomes from male Wistar rat hypothalamus) (Rattus norvegicus, UniProt Q63380); assay: Norepinephrine functional uptake assay for rat reuptake transporter (synaptosomes); assay type: biochemical; details: [3H]-norepinephrine uptake, read-out: Inhibition of monoamine uptake, Rat NE, IC50
Experimental: as §1
Quantification of norepinephrine uptake was performed using synaptosomes isolated in a 0.32 M sucrose buffer from a male Wistar rat hypothalamus. The uptake of radiolabelled norepinephrine by synaptosomes (100 μg of proteins/point) was allowed by incubating them for 20 minutes at 37° C. in presence of test compounds and [^3H]-norepinephrine (0.1 μCi/point). The experiment was performed in a deep well.
Synaptosomes and [^3H]-norepinephrine were prepared in a Krebs buffer pH 7.4 containing 25 mM NaHCO3, 11 mM glucose and 50 μM ascorbic acid. This incubation buffer was oxygenated for 5 minutes before incubation. Basal control was incubated for 20 minutes at 4° C. in order to avoid any uptake. Following this incubation, the uptake was stopped by filtration through a unifilter 96-wells GFB. Packard plate washed with Krebs buffer containing 25 mM NaHCO3 in order to eliminate the free [^3H]-norepinephrine. The radioactivity associated to the synaptosomes retained onto the unifilter corresponding to the uptake was then measured with a microplate scintillation counter (Topcount, Packard) using a scintillation fluid.

[3] = target: recombinant human dopamine transporter expressed in CHO-K1 cells (Homo sapiens, UniProt Q01959)
Experimental: as §1
Test compound and/or vehicle was preincubated with cells (4×10^5/ml) in modified Tris-HEPES buffer pH 7.1 for 20 minutes at 25° C. and 50 nM [^3H]Dopamine was then added for an additional 10 minute incubation period. A lysate was obtained from solubilized cells and the amount of tritium in the lysate was measured using a liquid scintillation counter to determine [^3H]Dopamine uptake. Reduction of [^3H]Dopamine uptake by 50 percent or more (≧50%) relative to 10 μM nomifensine indicates significant inhibitory activity.

[4] = target: 5-HT uptake, rat reuptake transporter (synaptosomes from male Wistar rat cortex) (Rattus norvegicus, UniProt P31652); details: at a 10 μM concentration
5-HT uptake, rat reuptake transporter (synaptosomes from male Wistar rat cortex), sequence (P31652 whole entry): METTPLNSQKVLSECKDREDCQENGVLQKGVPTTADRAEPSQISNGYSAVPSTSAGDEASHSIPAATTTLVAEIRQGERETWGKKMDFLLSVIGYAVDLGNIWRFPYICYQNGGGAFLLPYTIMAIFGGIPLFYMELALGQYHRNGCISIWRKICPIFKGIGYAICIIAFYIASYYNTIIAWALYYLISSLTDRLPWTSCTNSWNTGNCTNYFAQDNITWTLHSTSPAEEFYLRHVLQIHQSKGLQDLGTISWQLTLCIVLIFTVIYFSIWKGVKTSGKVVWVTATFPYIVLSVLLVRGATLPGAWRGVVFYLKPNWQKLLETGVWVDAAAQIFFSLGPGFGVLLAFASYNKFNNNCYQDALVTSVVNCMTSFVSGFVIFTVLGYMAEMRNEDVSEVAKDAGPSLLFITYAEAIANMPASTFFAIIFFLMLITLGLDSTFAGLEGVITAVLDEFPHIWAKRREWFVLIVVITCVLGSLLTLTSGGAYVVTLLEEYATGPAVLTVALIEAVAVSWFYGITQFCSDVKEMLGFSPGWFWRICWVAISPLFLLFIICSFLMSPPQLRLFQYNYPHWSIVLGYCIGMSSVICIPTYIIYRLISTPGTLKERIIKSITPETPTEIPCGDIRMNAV
Experimental: as §1
Quantification of 5HT uptake was performed using synaptosomes isolated in a 0.32M sucrose buffer from a male Wistar rat cortex. The uptake of radiolabelled 5-HT by synaptosomes (100 μg of proteins/point) was allowed by incubating them in a well for 15 min at 37° C. in presence of test compounds and [^3H]5-hydroxytryptamine (0.1 μCi/point).
Synaptosomes and [^3H]5-hydroxytryptamine were prepared in a Krebs buffer pH 7.4 containing 25 mM NaHCO3, 11 mM mM glucose and 50 μM ascorbic acid. This incubation buffer was oxygenated during 5 minutes before incubation. Basal control was incubated for 15 minutes at 4° C. in order to avoid any uptake. […] The radioactivity associated to the synaptosomes retained on the unifilter corresponding to the uptake was then measured with a microplate scintillation counter (Topcount, Packard) using a scintillation fluid. Nonspecific binding was measured in the presence of an excess of cold, unlabeled ligand. […]

norepinephrine uptake, rat reuptake transporter (synaptosomes from male Wistar rat hypothalamus), sequence (Q63380 1-617): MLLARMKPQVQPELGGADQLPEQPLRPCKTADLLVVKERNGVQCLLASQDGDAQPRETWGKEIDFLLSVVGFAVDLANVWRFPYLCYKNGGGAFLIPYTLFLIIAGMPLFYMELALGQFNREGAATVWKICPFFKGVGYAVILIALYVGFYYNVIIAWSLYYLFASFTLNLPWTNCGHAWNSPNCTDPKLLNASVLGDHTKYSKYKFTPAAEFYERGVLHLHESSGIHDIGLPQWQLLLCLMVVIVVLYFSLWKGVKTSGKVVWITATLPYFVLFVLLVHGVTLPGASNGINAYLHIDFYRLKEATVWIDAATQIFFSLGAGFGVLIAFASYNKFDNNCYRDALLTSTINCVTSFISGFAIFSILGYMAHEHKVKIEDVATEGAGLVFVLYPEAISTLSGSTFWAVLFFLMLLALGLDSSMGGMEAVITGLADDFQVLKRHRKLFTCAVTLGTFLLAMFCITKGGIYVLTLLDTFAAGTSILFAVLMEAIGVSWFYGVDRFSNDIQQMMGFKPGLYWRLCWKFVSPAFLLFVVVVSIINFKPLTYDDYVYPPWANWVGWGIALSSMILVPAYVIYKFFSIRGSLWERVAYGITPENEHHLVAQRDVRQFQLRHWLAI
T1 sequence (P23977 whole entry): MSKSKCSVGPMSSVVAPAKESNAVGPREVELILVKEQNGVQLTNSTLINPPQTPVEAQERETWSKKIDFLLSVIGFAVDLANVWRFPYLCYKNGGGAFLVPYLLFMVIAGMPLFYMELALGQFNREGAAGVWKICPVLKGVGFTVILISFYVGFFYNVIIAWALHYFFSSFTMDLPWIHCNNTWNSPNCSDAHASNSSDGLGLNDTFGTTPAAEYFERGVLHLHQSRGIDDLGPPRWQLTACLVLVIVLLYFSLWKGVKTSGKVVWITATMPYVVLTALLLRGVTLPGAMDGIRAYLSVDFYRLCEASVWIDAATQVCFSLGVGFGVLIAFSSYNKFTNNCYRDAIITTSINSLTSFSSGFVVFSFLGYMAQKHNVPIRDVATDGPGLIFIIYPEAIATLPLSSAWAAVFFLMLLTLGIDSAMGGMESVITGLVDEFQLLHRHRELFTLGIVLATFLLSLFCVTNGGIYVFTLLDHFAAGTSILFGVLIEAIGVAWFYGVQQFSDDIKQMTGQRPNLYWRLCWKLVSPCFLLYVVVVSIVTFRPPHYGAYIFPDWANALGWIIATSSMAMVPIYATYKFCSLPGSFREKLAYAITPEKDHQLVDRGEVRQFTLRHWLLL
recombinant human dopamine transporter expressed in CHO-K1 cells, sequence (Q01959 whole entry): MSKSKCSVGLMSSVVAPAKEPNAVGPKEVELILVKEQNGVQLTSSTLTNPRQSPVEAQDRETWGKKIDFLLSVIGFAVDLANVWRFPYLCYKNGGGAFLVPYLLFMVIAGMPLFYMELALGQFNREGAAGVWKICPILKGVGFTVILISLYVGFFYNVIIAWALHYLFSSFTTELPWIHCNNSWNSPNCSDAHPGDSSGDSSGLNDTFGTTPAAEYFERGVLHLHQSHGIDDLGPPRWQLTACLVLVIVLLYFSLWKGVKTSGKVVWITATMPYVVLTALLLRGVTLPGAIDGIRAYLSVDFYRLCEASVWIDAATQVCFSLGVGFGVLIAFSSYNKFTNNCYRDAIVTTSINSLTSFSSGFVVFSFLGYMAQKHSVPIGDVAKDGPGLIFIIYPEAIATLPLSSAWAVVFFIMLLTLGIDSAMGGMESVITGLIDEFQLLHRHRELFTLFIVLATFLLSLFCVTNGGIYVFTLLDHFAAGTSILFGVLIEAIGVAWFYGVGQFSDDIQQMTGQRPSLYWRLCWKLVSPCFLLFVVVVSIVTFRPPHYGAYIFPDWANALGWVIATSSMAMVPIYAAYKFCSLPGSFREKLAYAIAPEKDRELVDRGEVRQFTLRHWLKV

Compound	pIC50 [1]	pIC50 [2]	Inhibition of functional reuptake, Human DA (IC50 not given) [3]	Inhibition of functional reuptake, Rat 5-HT (IC50 not given) [4]	Inhibition of functional reuptake, Rat DA (IC50 not given) ([1]; at a 10 μM concentration)
CN(C)CC(c1ccc(O)cc1)C1(O)CCCCC1 (single isomer, unassigned; (-)) [(−)-O-desmethylvenlafaxine]	5.24	6.37	–	–	–
CN(C)CC(c1ccc(O)cc1)C1(O)CCCCC1 (racemic) [Racemic O-desmethylvenlafaxine, O-desmethylvenlafaxine]	5.12	5.82	— (key: — indicates less than 50% inhibition of functional reuptake at a 10 μM concentration.)	–	–
CN(C)CC(c1ccc(O)cc1)C1(O)CCCCC1 (single isomer, unassigned; (+)) [(+)-O-desmethylvenlafaxine]	–	5.77	— (key: — indicates less than 50% inhibition of functional reuptake at a 10 μM concentration.)	— (— indicates less than 50% inhibition of functional reuptake at a 10 μM concentration.)	— (— indicates less than 50% inhibition of functional reuptake at a 10 μM concentration.)
